Experiments:
[1] = test system: IQSPHFF peptide (SEQ ID NO:1), displayed on phage; experiment: Binding of IQSPHFF phage to BSA-conjugated fluorochromes; conditions: FIG. 3A
Experimental: FIG. 3 presents exemplary data showing molecular modeling of IQSPHFF binding to VT-680. FIG. 3A. Binding affinities of IQSPHFF phage to BSA-conjugated fluorochromes via ELISA. FIG. 3B. Schematic π-π bonding between the phenylalanines of the peptide and the indole or benzoindole subunit of VT680 FIG. 3C. […] FIG. 3D. Illustrating a possible interaction of the peptide hydrophobic isoleucine and the hydrophobic alkene of the fluorochrome.
The affinity of IQSPHFF was determined using […] for different commercially available benzindol fluorochromes (Cy 3.5, Cy 5.5, VT680 and AF750). […] FIG. 3A.
The N-hydroxysuccinimide (NHS) ester of the benzindol fluorochromes VT680, GH680, Cy3.5, Cy5.5 or AF750 (1 mg) were conjugated to bovine serum albumin (BSA 100 mg/mL; 0.3 M NaCO3 buffer, pH 8.6) under reaction conditions of approximately tenfold molar excess VT680 to BSA. BSA-fluorochrome conjugate or BSA was adsorbed (5.0 μg/0.1 ml well, w/vol) overnight to wells of a Nunc Maxisorp plage (Nunc, Rochester, N.Y.). Supernatants were discarded and washed twice with PBS and blocked (5% BSA, 0.3 M NaCO3, pH 8.6, room temperature, 45 min). […]
Readout was depicted as the mean difference between absorbances in the BSA-fluorochrome containing wells and the BSA-only (negative control) wells. […]

HT1080 cells = experiment: In vitro cell labeling of HT1080 cells, fluorescence plate reader; type: cell-based; conditions: free (unconjugated) peptide
Experimental: HT1080 […] cells (20,000 cells/well) were washed 3× with PBS to remove media then incubated with 0.1 mL of […] of Ac-IQSPHFF-NHS peptide or vehicle (PBS with 1% DMSO) for 1 hour at 37° C. Subsequent to incubation, cells were washed then incubated for 1 hour at 37° C. in the dark with 1 nmole of GH680 or 1 nmole of GH680+5 nmoles of underivatized peptide (competition experiment). Cells were then washed 6× with PBS+0.1% Tween 20 and analyzed via fluorescence plate reader GeminiXS (Molecular Devices). The IQSPHFF peptide sequence was covalently conjugated onto HT1080 cells and incubated with 5 nM of NIRF (VT680). Cells conjugated with IQSPHFF bound VT680>120-fold better than cells not conjugated with IQSPHFF. In addition, free (unconjugated) IQSPHFF peptide was able to compete for 98% of the binding of fluorochrome to peptide labeled cells, indicating the specificity of the interaction. FIG. 8A.

Substance	affinity of IQSPHFF, relative between fluorochromes [1]	competition of fluorochrome binding to peptide labeled cells by free peptide (HT1080 cells) [%]
Cy5.5	approximately four-fold less biding than VT680	–
IQSPHFF	–	98

From US20100233676A1, “HIGH AFFINITY FLUOROCHROME BINDING PEPTIDES” (priority 2007, published 2010)
